From patent US10428030B2, “Heterocycle derivatives and their use for the treatment of CNS disorders” (Trillium Therapeutics Inc., priority 2015, dated 2019)

How the values were obtained:
[1] = test system: Frings audiogenic seizure-susceptible mice; assay: Frings audiogenic seizure (AGS)-susceptible mouse model; type: in vivo; settings: Mus musculus, ip, sound-induced seizures
Text: Frings audiogenic seizure (AGS)-susceptible mice model examines the ability of an investigational drug to alter the onset and/or severity of seizures in a genetic mouse model of seizure susceptibility. Mice are genetically susceptible to sound-induced reflex seizures. Their seizure phenotype is characterized by wild running, loss of righting reflex, tonic flexion, and tonic extension in response to high-intensity sound stimulation. […] For example, the prototypical anticonvulsants phenytoin and ethosuximide display widely divergent clinical spectrums in humans, but are both active against sound-induced seizures in mice. Yet, the preclinical utility of this animal model rests in the useful information that can be obtained within a genetically susceptible model of seizures. Further, efficacy in this model provides proof of concept of brain bioavailability following systemic administration. The Frings AGS-susceptible mouse has a well-validated epilepsy phenotype that makes it particularly useful as a screening model. Beginning at about 21 days of age, Frings AGS-susceptible mice display prominent seizure activity in response to a high-intensity sound stimulus. They then remain susceptible to sound throughout their life. This is in stark contrast to the DBA2J AGS-susceptible mouse, which is the other common model of sound-induced seizures, as DBA2J mice are only susceptible to sound-induced seizures during a narrow developmental window (post-natal days 18-30). Thus, the Frings AGS-susceptible mouse seizures respond to a wide range of CNS-active drugs and display sound-induced seizures throughout their lifetime. In this regard, Frings AGS-susceptible mice are a highly useful screening model for the identification and characterization of compounds potentially effective against inherited epilepsy.
Male and female Frings audiogenic seizure-susceptible mice (18-25 g) are maintained in an in-house colony at the University of Utah. For each screening test, groups of 8 mice each are treated i.p. with varying doses of the investigational compound. At the time of peak effect as determined in the MES test (Test 4 in CF1 mice), individual mice are placed in a round plexiglass jar (diameter, 15 cm, height, 18 cm) and exposed to a sound stimulus of 110 decibels (11 KHz) delivered for 20 sec. Mice are observed for 25 sec for the presence or absence of hind limb tonic extension. Mice not displaying hind limb tonic extension are considered protected. The severity of a seizure may also be quantitated by assigning a numerical score to the observed response, e.g. no response—0; wild running for <10 sec—1; wild running for >10 sec—2; clonic seizure—3; forelimb extension/hind limb flexion—4; tonic seizure—5.

MTLE mice = assay: Model of mesial temporal lobe epilepsy (mTLE), hippocampal paroxysmal discharges; type: in vivo, mouse; settings: after 600 mg/kg, mice 4 weeks after intra-hippocampal KA
Text: The MTLE mouse model recapitulates many of the characteristics observed in human patients with temporal lobe epilepsy (TLE). The MTLE mouse is characterized by an initial neurotoxic event, a unilateral intrahippocampal injection of kainic acid (KA) into the dorsal hippocampus, which induces non-convulsive SE lasting several hours. This initial event is followed by a latent phase. Two to three weeks after KA injection, spontaneous recurrent hippocampal paroxysmal discharges (HPD) are only recorded in the epileptic hippocampus and remain stable and stereotyped for the whole life of the animal. These HPDs occur spontaneously about 30-60 times per hour when the animals are in a state of quiet wakefulness, generally last 15-20 sec and are associated with behavioral arrest and/or mild motor automatisms. Adult, male […] mice are stereotaxically injected with kainate (1 nmol in 100 nL) and implanted with 1 bipolar electrode in the dorsal hippocampus, and then allowed to recover for four weeks prior to evaluation in the screening protocol. Using a group size of 4 MTLE mice per dose of investigational compound, the compounds are typically first tested using the 6 Hz 44 mA ED50 value. […] For all acute studies, drug conditions are counter-balanced in MTLE mice over a two week period using a Latin square dosing protocol. Animals are used as their own controls. Digital EEG recordings are performed on freely moving animals for 20 minutes pre-injection (reference period) and 90 minutes post-injection. Data are analyzed for the period of 10 minutes before and 10 minutes after peak time of effect of the investigational compound, as determined from the 6 Hz 44 mA seizure test. The effects of the injected compound are compared to the reference period. Any accompanying effect on animal behavior is noted. Data are presented as the raw number of HPDs during the analyzed 20 min period (10 minutes before and 10 minutes after peak time of effect of compound) for each MTLE mouse, group mean number of HPDs, and effect on suppression as represented by percent of baseline HPD values.

Male Sprague-Dawley rats = assay: Maximal Electroshock Seizure (MES) rat model; type: in vivo; settings: po, 4 hours
Method: (§1) Male, Sprague-Dawley rats and CD-1 mice were used for all studies. All animals were allowed ad-lib access to food and water except during experiment. Animals were housed within an animal vivarium maintained under a 12 h light:dark cycle (lights on: 07:00 h), and all experiments were conducted in the animals light phase. For all experiments, animals were habituated to the vivarium for a minimum of 72 h before experimentation. The experimental procedures used in the present investigation were conducted under the Association for Assessment and Accreditation of Laboratory Animal Care (AAALAC) and the Canadian Council on Animal Care (CCAC) guidelines.
(§2) All compounds were sonicated in 5% Tween 80® in saline or methylcellulose 0.5% (wgt/vol), using MC and sterile water and injected in a dose volume of 5 ml/kg or 10 ml/kg (rat), and 10 ml/kg (mouse). Drugs were administered by either the oral, intraperitoneal or intravenous route.
Male Sprague-Dawley rats of body weight 80-100 g were used for these studies. Each experiment was conducted over 3 consecutive days. On day 1 and 2, each rat received a single electrical stimulus (150 mA, 0.2 s duration, 60 Hz) via corneal electrodes moistened with saline (Shock stimulator type 221: Harvard apparatus). […] Typically this reflected approximately 70-90% of the initial group.
(§3) On the test day following a defined drug pretreatment period, rats received a maximal electroshock (150 mA, 0.2 s duration, 60 Hz) via corneal electrodes. Protection was defined as absence of a full tonic seizure within 10 s of stimulus delivery. Twenty minutes before the MES procedure, the animals were tested on a fixed speed rotorod (best score from 3 trials at 8 r.p.m, trial duration=60 s) to give an early assessment of drug effect on gross motor function.

[2] = Fixed speed rotorod, gross motor function (rat); settings: male, Sprague-Dawley, in vivo, po
Method: as §3

CD-1 mice = assay: s.c Pentylenetetrazole (PTZ) mouse model; type: in vivo; settings: ip, PTZ 85 mg/kg s.c.
Method: as §1, §2
Sixty minutes following drug or vehicle pretreatment, all mice received a single subcutaneous injection of pentylenetetrazol (PTZ; 85 mg/kg). The animals were then transferred to single observation cages (dimension: 11.5″×7.5″×5″) and observed continuously for 30 min. […] In the event of a seizure, the onset latency from PTZ injection was recorded.

[3] = test system: Frings audiogenic seizure-susceptible mice; settings: general statement on prototypical anticonvulsants; cited from earlier work
mouse [4] = settings: literature report; cited from earlier work
mouse [5] = settings: literature report; cited from earlier work; remark: listed apart in the source

SMILES: CCCC(CCC)C(=O)O [Valproic Acid]
- ED50 [1]: 155 mg/kg

SMILES: CC[C@@H](C(N)=O)N1CCCC1=O [Levetiracetam, reference compound]
- Effect (% baseline) (MTLE mice; HPD): 68.7 % baseline
- Mean HPD Counts (MTLE mice): 14.3

SMILES: O=C1Nc2ccc(OCc3ccccc3)cc2OC1(F)F [I(D), 7-Benzyloxy-2,2-difluoro-4H-benzo[1,4]oxazin-3-one]
- ED50 (Male Sprague-Dawley rats): 30.5 ± 0.8 mg/kg
- ED50 at 4 hours [2]: > 120 mg/kg

SMILES: O=C1COc2cc(OCc3ccccc3)ccc2N1 [Compound 1, 7-Benzyloxy-4H benzo[1,4]oxazin-3-one, reference compound]
- ED50 (Male Sprague-Dawley rats): > 300 mg/kg
- ED50 (CD-1 mice): > 300 mg/kg

SMILES: O=C1NC(=O)C(c2ccccc2)(c2ccccc2)N1 [Phenytoin]
- ED50 [1]: 3.8 mg/kg
- activity against sound-induced seizures in mice [3]: active

SMILES: NC(=O)OCC(COC(N)=O)c1ccccc1 [Felbamate]
- ED50 [1]: 10 mg/kg

SMILES: NCC1(CC(=O)O)CCCCC1 [Gabapentin]
- ED50 [1]: 91.1 mg/kg

SMILES: O=C1CCc2cc(OCc3ccccc3)ccc2N1
- activity in mouse electroshock seizure (MES) model (mouse [4]): active
- activity in pentylenetetrazole (PTZ) model (mouse [5]): active

SMILES: CCC1(C)CC(=O)NC1=O (centres unmarked) [Ethosuximide]
- ED50 [1]: 328 mg/kg
- activity against sound-induced seizures in mice [3]: active

SMILES: NC(=O)N1c2ccccc2C=Cc2ccccc21 [Carbamazepine]
- ED50 [1]: 11.2 mg/kg

SMILES: Nc1nnc(-c2cccc(Cl)c2Cl)c(N)n1 [Lamotrigine]
- ED50 [1]: 2.39 mg/kg
